Patent publication US10336792B2, “Antimicrobial peptide dendrimers” (priority 2014, dated 2019)
In brackets after ≈: the same amount, converted by molar mass. Positions of bridges follow the written chain, without caps; N, C: chain ends. Non-standard residues stand in square brackets, D forms with d. Residues, ends and D or L forms follow the SMILES beside them. Groups on a side chain read outwards from the residue. Chains are numbered I, II in the order given.

What was measured:
P. aeruginosa PA01 (WT) = format: cell-based, Pseudomonas aeruginosa; settings: WT
Description: (§1) Antimicrobial activity was assayed against P. aeruginosa PA01 (WT), P. aeruginosa PT1482 (A-), PT1485 (A-B-), PT1149 (A-B-C-algC), PT331 (Z61) (LPS mutants), P. aeruginosa PEJ2.6, PEJ9.1, ZEM1.A, ZEM9.A (clinical isolates from Université de Genève/Centre Médical Universitaire), Burkholderia cenocepacia (B. ceno), Staphylococcus aureus (S. aureus, MRSA strain) and Acinetobacter baumannii (A. baum) (clinical isolates from Université de Genève/Centre Médical Universitaire). To determine the minimal inhibitory concentration (MIC), microdilution broth method was used. A colony of bacteria was grown in MH-medium overnight at 37° C. The samples were prepared as stock solutions of 8 mg mL^−1 in H2O, diluted to the beginning concentration of 32, 64, 128 or 256 μg/mL in 300 μL MH-medium, added to the first well of 96-well microtiterplate (TPP, untreated) and diluted serially by ½. The concentration of the bacteria was quantified by measuring absorbance at 600 nm and diluted to OD600=0.022 in MH-medium. The sample solutions (150 μL) were mixed with 4 μL diluted bacterial suspension with a final inoculation of about of 5×10^5 CFU. The plates were incubated at 37° C. until satisfactory growth (˜18 h). For each test, two columns of the plate were kept for sterility control (SC, broth only) and growth control (GC, broth with bacterial inoculums, no antibiotics). The minimal inhibitory concentration (MIC) was defined as the lowest concentration of the antimicrobial substance (peptide dendrimer) that inhibited visible growth of the tested bacteria with the unaided eye. For microbiological study Polymyxin was used as references.

[1] = system: P. aeruginosa PEJ2.6, PEJ9.1, ZEM1.A, ZEM9.A (clinical isolates); format: cell-based, Pseudomonas aeruginosa; settings: PEJ2.6, PEJ9.1, ZEM1.A, ZEM9.A (clinical isolates)
Description: as §1
(§2) Ten of the most promising compounds (FIG. 5) were tested for their efficiency against four clinical isolates of P. aeruginosa (ZEM9.A, ZEM1.A, PEJ2.6, PEJ9.1), one S. aureus (COL, MRSA reference strain) and one A. baumannii strain. For the experiments in Genève the peptide dendrimers and reference compounds (polymyxin) were dissolved in PBS and the assay was carried out in Müller-Hinton (MH) broth with a two-fold dilution.

Acinetobacter baumannii = format: cell-based
Description: as §1, §2

[2] = system: Staphylococcus aureus (COL, MRSA reference strain); format: cell-based; settings: COL, reference strain
Description: as §1, §2

[3] = system: Pseudomonas aeruginosa (strain PA01); test: microbe, parasite or virus in culture; format: cell-based; settings: strain
In short: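 P. aeruginosa PAO1 grown overnight in LB, diluted to OD600 0.001 and mixed with ⅔-step peptide dilutions, then incubated at 37 °C for 18–24 h. After MTT staining, the lowest concentration with no visible growth was read by eye as the MIC.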

[4] = system: Bacillus subtilis (strain BR151); format: cell-based; settings: strain BR151
In short: (§3)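 Broth microdilution MIC in LB; overnight cultures diluted to OD600 0.001 and mixed 1:1 with ⅔-serially diluted samples (stock 1 mg mL^−1 in H2O), 37° C for 18-24 h. MTT (0.1%) added; MIC read by eye as lowest concentration inhibiting visible growth (yellow).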

male wistar rats = test: In-vivo toxicity study, single i.v. injection; design: species or system rat; settings: for visible effects and behaviour after injection: 2 mg/kg single i.v. dose into tail vein, two rats; for survival rate: 2 mg/kg single i.v. dose, monitored 2 days
Description: 4-6 weeks old male wistar rats (weight range 200-500 g) were used in toxicity experiments. Rats were obtained from Zentrale Tierställe Bern (Department of Clinical Research from University of Bern) and housed 4 per cage. Each experimental group includes two rats. All procedures, care and handling of the animals were reviewed and approved by the Veterinärdienst of Kanton Bern, Schweiz and execute in collaboration with the group of Prof. Hugues Abriel from Department of Clinical Research from University of Bern.
Rats were anesthetized with 4% isoflurane and 1 L/min oxygen in an induction chamber. When the rats were sleeping they were transferred on a clinical drape and anesthetized with 1-2% isoflurane and 0.8 l/min oxygen via a mask. The tail was warmed up with warm water and disinfected with 70% ethanol. The intravenous (i.v.) injections into the tail vein included a single dose of the AMPD of 2 mg/kg rat in 500 μL PBS. Before injection each rat was weighted individually and the exact dosage was determined. All rats, including control groups with no injection and i.v. injection of 500 μL PBS, were monitored for their survival and behavior for two days.
The compounds MSt-112, a 3rd generation AMPD with KL motive, MSt-181 its D-enantiomer analogue, MSt-242, a the 3rd generation with RL motive, and MSt-114 with Tyr instead of Lys in the 3rd generation were used for in vivo experiments with male wistar rats to assess their toxicity. These compounds were selected due to their high potencies and high MHCs values, which are at least 10 times higher than their activities. Each compound (concentration of 2 mg/kg) was applied to two rats by intravenous injection into the tail vein to observe if the AMPDs are well tolerated or may cause adverse effects. The concentration used was approx. 5-10 times higher than the MICs. […] The behaviour of the rats was normal. […] Therefore it seems that rats tolerate AMPDs very well, without visible site effects or even casualties.

[5] = system: Escherichia coli (strain DH5α); format: cell-based; settings: DH5α
In short: as §3

SMILES	MIC PAO1 (P. aeruginosa PA01 (WT))	MIC P. aeruginosa MDR clinical isolate PEJ2.6 [1]	MIC P. aeruginosa MDR clinical isolate PEJ9.1 [1]	MIC P. aeruginosa MDR clinical isolate ZEM1A [1]	MIC P. aeruginosa MDR clinical isolate ZEM9A [1]	MIC A. baumannii ATCC19606 (Acinetobacter baumannii)	MIC S. aureus COL [2]	MIC P. aeruginosa PAO1 [3]	MIC B. subtilis BR151 [4]	visible effects and behaviour after injection (male wistar rats)	survival rate (male wistar rats)	MIC E. coli DH5α [5]	MIC P. aeruginosa ZEM9.A [1]	MIC S. aureus (COL, MRSA reference strain) [2]
CC(C)C[C@H](NC(=O)[C@H](CCCCN)NC(=O)[C@H](CCCCNC(=O)[C@H](CC(C)C)NC(=O)[C@H](CCCCN)NC(=O)[C@H](CCCCNC(=O)[C@H](CC(C)C)NC(=O)[C@@H](N)CCCCN)NC(=O)[C@H](CC(C)C)NC(=O)[C@@H](N)CCCCN)NC(=O)[C@H](CC(C)C)NC(=O)[C@H](CCCCN)NC(=O)[C@H](CCCCNC(=O)[C@H](CC(C)C)NC(=O)[C@@H](N)CCCCN)NC(=O)[C@H](CC(C)C)NC(=O)[C@@H](N)CCCCN)C(N)=O [Compound G2KL] (I: H-KLK([Leu-Lys])KLKKL-NH2 / II: H-KLK([Leu-Lys])KL; amide I:6-II:C; N-terminus assumed)	>64 µg/mL	>64 µg/mL	>64 µg/mL	>64 µg/mL	>64 µg/mL	>64 µg/mL	>64 µg/mL							
CC(C)C[C@H](NC(=O)[C@H](CCCCN)NC(=O)[C@H](CCCCNC(=O)[C@H](CC(C)C)NC(=O)[C@H](CCCCN)NC(=O)[C@H](CCCCNC(=O)[C@H](CC(C)C)NC(=O)[C@H](CCCCN)NC(=O)[C@H](CCCCNC(=O)[C@H](Cc1ccc(O)cc1)NC(=O)[C@@H](N)CCCCN)NC(=O)[C@H](Cc1ccc(O)cc1)NC(=O)[C@@H](N)CCCCN)NC(=O)[C@H](CC(C)C)NC(=O)[C@H](CCCCN)NC(=O)[C@H](CCCCNC(=O)[C@H](Cc1ccc(O)cc1)NC(=O)[C@@H](N)CCCCN)NC(=O)[C@H](Cc1ccc(O)cc1)NC(=O)[C@@H](N)CCCCN)NC(=O)[C@H](CC(C)C)NC(=O)[C@H](CCCCN)NC(=O)[C@H](CCCCNC(=O)[C@H](CC(C)C)NC(=O)[C@H](CCCCN)NC(=O)[C@H](CCCCNC(=O)[C@H](Cc1ccc(O)cc1)NC(=O)[C@@H](N)CCCCN)NC(=O)[C@H](Cc1ccc(O)cc1)NC(=O)[C@@H](N)CCCCN)NC(=O)[C@H](CC(C)C)NC(=O)[C@H](CCCCN)NC(=O)[C@H](CCCCNC(=O)[C@H](Cc1ccc(O)cc1)NC(=O)[C@@H](N)CCCCN)NC(=O)[C@H](Cc1ccc(O)cc1)NC(=O)[C@@H](N)CCCCN)C(N)=O [MSt-114, (KY)8(KKL)4(KKL)2(KKL)] (I: H-KYK([Tyr-Lys])KLKKLKKL-NH2 / II: H-KYK([Tyr-Lys])KLKKL / III: H-KYK([Tyr-Lys])KL / IV: H-KYK([Tyr-Lys])KL; amide I:6-IV:C, I:9-II:C, II:6-III:C)								2 µg/mL (≈ 0.405 µM)	13 µg/mL (≈ 2.63 µM)	slightly bluish extremities which subsided after approx. 5 min	100%			
CC(C)C[C@@H](NC(=O)[C@@H](CCCCN)NC(=O)[C@@H](CCCCNC(=O)[C@@H](CC(C)C)NC(=O)[C@@H](CCCCN)NC(=O)[C@@H](CCCCNC(=O)[C@@H](CC(C)C)NC(=O)[C@@H](CCCCN)NC(=O)[C@@H](CCCCNC(=O)[C@@H](CC(C)C)NC(=O)[C@H](N)CCCCN)NC(=O)[C@@H](CC(C)C)NC(=O)[C@H](N)CCCCN)NC(=O)[C@@H](CC(C)C)NC(=O)[C@@H](CCCCN)NC(=O)[C@@H](CCCCNC(=O)[C@@H](CC(C)C)NC(=O)[C@H](N)CCCCN)NC(=O)[C@@H](CC(C)C)NC(=O)[C@H](N)CCCCN)NC(=O)[C@@H](CC(C)C)NC(=O)[C@@H](CCCCN)NC(=O)[C@@H](CCCCNC(=O)[C@@H](CC(C)C)NC(=O)[C@@H](CCCCN)NC(=O)[C@@H](CCCCNC(=O)[C@@H](CC(C)C)NC(=O)[C@H](N)CCCCN)NC(=O)[C@@H](CC(C)C)NC(=O)[C@H](N)CCCCN)NC(=O)[C@@H](CC(C)C)NC(=O)[C@@H](CCCCN)NC(=O)[C@@H](CCCCNC(=O)[C@@H](CC(C)C)NC(=O)[C@H](N)CCCCN)NC(=O)[C@@H](CC(C)C)NC(=O)[C@H](N)CCCCN)C(N)=O [MSt-181, (kl)8(kkl)4(kkl)2(kkl)] (I: H-[dK][dL][dK]([dL-dK])[dK][dL][dK][dK][dL][dK][dK][dL]-NH2 / II: H-[dK][dL][dK]([dL-dK])[dK][dL][dK][dK][dL] / III: H-[dK][dL][dK]([dL-dK])[dK][dL] / IV: H-[dK][dL][dK]([dL-dK])[dK][dL]; amide I:6-IV:C, I:9-II:C, II:6-III:C)								4 µg/mL (≈ 0.882 µM)	2 µg/mL (≈ 0.441 µM)	slightly bluish extremities which subsided after approx. 5 min	100%	1 µg/mL (≈ 0.221 µM)		
CC(C)C[C@H](NC(=O)[C@H](CCCNC(=N)N)NC(=O)[C@H](CCCCNC(=O)[C@H](CC(C)C)NC(=O)[C@H](CCCNC(=N)N)NC(=O)[C@H](CCCCNC(=O)[C@H](CC(C)C)NC(=O)[C@H](CCCNC(=N)N)NC(=O)[C@H](CCCCNC(=O)[C@H](CC(C)C)NC(=O)[C@@H](N)CCCNC(=N)N)NC(=O)[C@H](CC(C)C)NC(=O)[C@@H](N)CCCNC(=N)N)NC(=O)[C@H](CC(C)C)NC(=O)[C@H](CCCNC(=N)N)NC(=O)[C@H](CCCCNC(=O)[C@H](CC(C)C)NC(=O)[C@@H](N)CCCNC(=N)N)NC(=O)[C@H](CC(C)C)NC(=O)[C@@H](N)CCCNC(=N)N)NC(=O)[C@H](CC(C)C)NC(=O)[C@H](CCCNC(=N)N)NC(=O)[C@H](CCCCNC(=O)[C@H](CC(C)C)NC(=O)[C@H](CCCNC(=N)N)NC(=O)[C@H](CCCCNC(=O)[C@H](CC(C)C)NC(=O)[C@@H](N)CCCNC(=N)N)NC(=O)[C@H](CC(C)C)NC(=O)[C@@H](N)CCCNC(=N)N)NC(=O)[C@H](CC(C)C)NC(=O)[C@H](CCCNC(=N)N)NC(=O)[C@H](CCCCNC(=O)[C@H](CC(C)C)NC(=O)[C@@H](N)CCCNC(=N)N)NC(=O)[C@H](CC(C)C)NC(=O)[C@@H](N)CCCNC(=N)N)C(N)=O [MSt-242, (RL)8(KRL)4(KRL)2(KRL)] (I: H-RLK([Leu-Arg])RLKRLKRL-NH2 / II: H-RLK([Leu-Arg])RLKRL / III: H-RLK([Leu-Arg])RL / IV: H-RLK([Leu-Arg])RL; amide I:6-IV:C, I:9-II:C, II:6-III:C)								8 µg/mL (≈ 1.61 µM)	11 µg/mL (≈ 2.22 µM)	No visible effect	100%	3 µg/mL (≈ 0.606 µM)	> 20 µg/mL	below 20 μg/mL
